Experimental data reported in article PMC9322189, “Development of a Personalized Tumor Neoantigen Based Vaccine Formulation (FRAME-001) for Use in a Phase II Trial for the Treatment of Advanced Non-Small Cell Lung Cancer” (Pharmaceutics, 2022).
No end group written: not given here.

Legend:
Format in all cases: physicochemical
[1] = In-use stability of thawed aqueous peptide mixtures at room temperature, UPLC-MS; settings: 4 h room temperature
[2] = Release testing and long-term (frozen) stability of aqueous peptide mixtures (143 µg/mL per peptide in PBS 10 mM pH 7.0), UPLC-MS; settings: in FRM001-M1
[3] = Filter experiment: peptide adsorption to the 0.22 µm sterilization filter, UPLC-MS; settings: in FRM001M1
[4] = Freeze–thaw stability of model peptides, UPLC-MS; settings: 150 µg/mL in PBS, two freeze–thaw cycles, fivefold on three consecutive days
Description: A UPLC-MS system was used for the development and validation of the stability-indicating analytical method. The apparatus, column, flow rate, mobile phase A, mobile phase B, mass acquisition, and sample run time were: UPLC UltiMate 3000 RSLC System (Thermo Fisher Scientific, Waltham, MA, USA) coupled to a Q Exactive Orbitrap Mass Spectrometers (Thermo Fisher Scientific, Waltham, MA, USA); Acquity UPLC Peptide CSH C18, 130 Å, 1.7 µm, 2.1 mm × 150 mm (Waters Corporation, Milford, MA, USA); 0.40 mL/min; 0.013% ammonium formate and 0.1% formic acid dissolved in ultrapure water (pH 2.8); 0.013% ammonium formate and 0.1% formic acid dissolved in a mixture of 0.495:0.495:0.10 methanol, acetonitrile, and ultrapure water; masses scanned from 300.0–1900.0 m/z; 15 min; respectively. The mobile phase gradient started at t0 min with 98% of mobile phase A that was gradually adjusted to 40% at t9 min. At t9.1 min, mobile phase A was set at 2% till t11.1 min. At t11.2 min, mobile phase A was set at 98% until the end of the sample run time.
For each peptide, six stock concentrations in the range of 5–225 µg/mL dissolved in PBS were made. The linear relationship of the calibration curves was investigated by regression analysis. The linear correlation coefficient (R^2), goodness of fit, and lack of fit were analyzed. For the accuracy and precision tests, samples of 50 µg/mL, 150 µg/mL, and 225 µg/mL were analyzed in triplicate on three consecutive days to determine the closeness of agreement of the measurements compared to the analyzed concentrations (accuracy % bias) and repeated experiments (relative standard deviations (RSD)). For the sensitivity test, peptide samples at 5 µg/mL were analyzed in triplicate on three consecutive days and the signal-to-noise (S/N) ratio was calculated from representative chromatograms. For the freeze–thaw experiment, samples at 150 µg/mL for each of the three peptides were prepared and analyzed in fivefold on three consecutive days after each sample was subjected to two freeze–thaw cycles before the analysis was initiated.

RHSPNGNGPRSQHHSLITTNTDPSCSCVT [FRM001P14, neoantigen peptide, in FRM001-M1]
Peptide peak ratio ([1]; in FRM001-M1, 2 w −25 °C): 11.3%
Peptide peak ratio ([1]; in FRM001-M1, 4 w −25 °C): 10.5%
Peptide peak ratio ([1]; in FRM001-M1, 8 w −25 °C): 10.8%
Peptide peak ratio ([1]; in FRM001-M1, 8 w −80 °C): 10.7%
Peptide peak ratio ([1]; in FRM001-M1, 12 w −25 °C): 11.2%
Peptide peak ratio ([1]; in FRM001-M1, 12 w −80 °C): 11.2%
Peptide peak ratio ([1]; in FRM001-M1, 16 w −25 °C): 10.5%
Peptide peak ratio ([1]; in FRM001-M1, 16 w −80 °C): 10.6%
Peptide peak ratio ([1]; in FRM001-M1, 32 w −25 °C): 10.9%
Peptide peak ratio ([1]; in FRM001-M1, 32 w −80 °C): 11.5%
Peptide peak ratio ([2]; 2 w −25 °C): 11.2%
Peptide peak ratio ([2]; 4 w −25 °C): 10.5%
Peptide peak ratio ([2]; 8 w −25 °C): 10.9%
Peptide peak ratio ([2]; 8 w −80 °C): 10.8%
Peptide peak ratio ([2]; 12 w −25 °C): 11.9%
Peptide peak ratio ([2]; 16 w −25 °C): 10.1%
Peptide peak ratio ([2]; 16 w −80 °C): 10.7%
Peptide peak ratio ([2]; 32 w −25 °C): 7.5%
Peptide peak ratio ([2]; 32 w −80 °C): 11.8%
Peptide peak ratio ([2]; t = 0 w, % area of peptide peak of sum of the six peptide peaks): 10.8%
Peak ratio ([3]; filtered (0.22 µm Millex GV)): 10.8%
Peak ratio ([3]; unfiltered sample): 10.9%

SAMEKRGARETQQQRKRVFRGRGVNSAK [FRM001P11]
Freeze–thaw stability, average bias [4]: 1%

SVTNTSLAHELWKVPLHLKTSLLRPAHLRD [FRM001P02]
Freeze–thaw stability, average bias [4]: 8%

VTLEERLDKACEPGVDYDGQTGVIHFQPRG [FRM001P23]
Freeze–thaw stability, average bias [4]: 4%
